Results reported in patent US10941114B2, “Small molecule lipid II inhibitors” (University Of Maryland, Baltimore, priority 2015, dated 2021).
Where a name gives a salt, the structure may show the parent alone.

System: Staphylococcus aureus
Test: Antibacterial activity assay (MIC, broth dilution)
Assay type: cell-based
Design: S. aureus Killing / Bacterial Killing S. aureus: unit not given here
Settings: for S. aureus Killing: anti-bacterial activity (MIC), strain not stated; for MIC SA USA300: Staphylococcus aureus USA 300 strain, broth microdilution

| SMILES | S. aureus Killing | other results |
| --- | --- | --- |
| COc1ccc(-c2cc(C)[o+]c(-c3ccc(OC)cc3)c2)cc1 [2,4-bis(4-methoxyphenyl)-6-methylpyrylium boron tetrafluoride salt] | >64 |  |
| CN(C)c1ccc(/C=C/c2cc(-c3ccccc3)cc(-c3ccc(F)cc3)[n+]2C)cc1.[I-] [Compound 3jc07-1, (E)-2-(4-(dimethylamino)styryl)-6-(4-fluorophenyl)-1-methyl-4-phenylpyridin-1-ium iodide salt] |  | MIC SA USA300: 4 µg/mL |
| CN(CCC#N)c1ccc(/C=C/c2cc(-c3ccccc3)cc(-c3ccc(Br)cc3)[n+]2C)cc1.[I-] [Compound 3jc07-4, (E)-2-(4-bromophenyl)-6-(4-((2-cyanoethyl)(methyl)amino)styryl)-1-methyl-4-phenylpyridin-1-ium iodide salt] |  | MIC SA USA300: 32 µg/mL |
| COc1ccc(-c2cc(/C=C/c3ccc(N(C)C)cc3)[n+](C)c(-c3ccc(Br)cc3)c2)cc1.[I-] [Compound 3jc07-7, (E)-2-(4-bromophenyl)-6-(4-(dimethylamino)styryl)-4-(4-methoxyphenyl)-1-methylpyridin-1-ium iodide salt] |  | MIC SA USA300: 1 µg/mL |
| Brc1ccc(-c2cc(/C=C/c3c[nH]c4ccccc34)[o+]c(-c3ccc(Br)cc3)c2)cc1 [(E)-2-(2-(1H-indol-3-yl)vinyl)-4,6-bis(4-bromophenyl) pyrylium boron tetrafluoride salt] | >64 |  |
| CCc1ccc(-c2cc(/C=C/c3cn(C)c4ccccc34)[o+]c(-c3ccc(CC)cc3)c2)cc1 [(E)-2.4-bis(4-ethylphenyl)-6-(2-(1-methyl-1H-indol-3-yl)vinyl)pyrylium boron tetrafiuoride salt] | 1 |  |
| Cc1ccc(-c2cc(/C=C/c3c[nH]c4ccccc34)[o+]c(-c3ccc(C)cc3)c2)cc1 [(E)-2-(2-(1H-indol-3-yl)vinyl)-4,6-di-p-tolylpyiylium boron tetrafluoride salt] | 4 |  |
| Cn1cc(/C=C/c2cc(-c3ccc(Br)cc3)cc(-c3ccc(Br)cc3)[o+]2)c2ccccc21 [(E)-2,4-bis(4-bromophenyl)-6-(2-(1-methyl-1H-indol-3-yl)vinyl)pyrylium boron tetrafluoride salt] | 64 |  |
| CC(C)(C)c1ccc(-c2cc(/C=C/c3c[nH]c4ccccc34)[o+]c(-c3ccc(C(C)(C)C)cc3)c2)cc1 [(E)-2-(2-(1H-mdol-3-yl)vinyl)-4,6-bis(4-(tert-butyl)phenyl) pyrylium boron tetrafluoride salt] | 32 |  |
| Cc1ccc(-c2cc(/C=C/C=C/c3ccc(N(C)C)cc3)[o+]c(-c3ccc(C)c(C)c3)c2)cc1C [2-((1E,3E)-4-(4-(dimethylamino)phenyl)buta-1,3-dien-1-yl)-4,6-bis(3,4~ dimethylphenyl) pyrylium boron tetrafluoride salt] | 32 |  |
| CN(C)c1ccc(/C=C/c2cc(-c3ccccc3)cc(-c3ccc(Br)cc3)[n+]2C)cc1.[I-] [Compound 3jc07-3, (E)-2-(4-bromophenyl)-6-(4-(dimethylamino)styryl)-1-methyl-4-phenylpyridin-1-ium iodide salt] |  | MIC SA USA300: 2 µg/mL |
| Cc1cc(-c2ccc(C)c(C)c2)cc(-c2ccc(C)c(C)c2)[o+]1 [2,4-bis(3,4-dimethylphenyl)-6-methylpyrylium boron tetrafluoride salt] | >64 |  |
| CN(C)c1ccc(/C=C/c2cc(-c3ccc(C(F)(F)F)cc3)cc(-c3ccc(C(F)(F)F)cc3)[o+]2)cc1.F[B-](F)(F)F |  | MIC (Staphylococcus aureus, Table 21, read-out: Staphylococcus aureus MIC): > 64 µg/mL |
| COc1ccc(-c2cc(/C=C/c3ccc(N(C)C)cc3)[n+](C)c(-c3ccc(F)cc3)c2)cc1.[I-] [Compound 3jc07-5, (E)-2-(4-(dimethylamino)styryl)-6-(4-fluorophenyl)-4-(4-methoxyphenyl)-1-methylpyridin-1-ium iodide salt] |  | MIC SA USA300: 1 µg/mL |
| Cc1cc(-c2ccc(C(C)(C)C)cc2)cc(-c2ccc(C(C)(C)C)cc2)[o+]1 [2,4-bis(4-(tert-butyl)phenyl)-6-methylpyrylium boron tetrafiuoride salt] | >64 |  |
| CN(CCC#N)c1ccc(/C=C/c2cc(-c3ccc(F)cc3)cc(-c3ccc(F)cc3)[o+]2)cc1.F[B-](F)(F)F [Compound 3jc09-1, (E)-2-(4-((2-cyanoethyl)(methyl)amino)styryl)-4,6-bis(4-fluorophenyl)pyrylium boron tetrafluoride salt] |  | MIC SA USA300: > 64 µg/mL |
| Cc1cc(/C=C/C=C/c2ccc(N(C)C)cc2)cc(C)[o+]1 [4-((1E,3E)-4-(4-(dimethylamino)phenyl)buta-1,3-dien-1-yl)-2,6-dimethylpyrylium boron tetrafluoride salt] | 32 |  |
| Cc1cc(/C=C/c2ccc(N(C)C)cc2)cc(C)[o+]1 [(E)-4-(4-(dimethylamino)styryl)-2,6-dimethvlpyrylium boron tetrafluoride salt] | 16 |  |
| CN(C)c1ccc(/C=C/C=C/c2cc(-c3ccc(Cl)cc3)cc(-c3ccc(Cl)cc3)[o+]2)cc1 [2,4-bis(4-chlorophenyl)-6-((1E,3E)-4-(4-(dimethylamino)phenyl)buta-1,3-dien-1-yl)pyrylium boron tetrafluoride salt] | >64 |  |

| SMILES | S. aureus Killing | other results |
| --- | --- | --- |
| Cn1cc(/C=C/c2cc(-c3ccc(Cl)cc3)cc(-c3ccc(Cl)cc3)[o+]2)c2ccccc21 [(E)-2,4-bis(4-chlorophenyl)-6-(2-(1-methyl-1H-indol-3-yl)vinyl)pyrylium boron tetrafluoride salt] | 64 |  |
| COc1ccc(-c2cc(/C=C/c3ccc(N(C)CCC#N)cc3)[n+](C)c(-c3ccc(Br)cc3)c2)cc1.[I-] [Compound 3jc07-8] |  | MIC SA USA300: 16 µg/mL |
| Cc1ccc(-c2cc(/C=C/c3ccc(N(C)C)cc3)[o+]c(-c3ccc(C)c(C)c3)c2)cc1C [(E)-2-(4-(dimethylamino)styryl)-4,6-bis(3,4-dimethylphenyl) pyrylium boron tetrafluoride salt] | 2 |  |
| CN(C)c1ccc(/C=C/C=C/c2cc(-c3ccc(C(C)(C)C)cc3)cc(-c3ccc(C(C)(C)C)cc3)[o+]2)cc1 [2,4-bis(4-(tert-butyl)phenyl)-6-((1E,3E)-4-(4-(dimethylamino)phenyl)buta-1,3-dien-1-yl)pyrylium boron tetrafluoride salt] | 64 |  |
| CN(CCC#N)c1ccc(/C=C/c2cc(-c3ccc(I)cc3)cc(-c3ccc(Br)cc3)[n+]2C)cc1 [Compound 3jc07-12, (E)-2-(4-bromophenyl)-6-(4-((2-cyanoethyl)(methyl)amino)styryl)-4-(4-iodophenyl)-1-methylpyridin-1-ium iodide salt] |  | MIC SA USA300: 32 µg/mL |
| Cc1ccc(-c2cc(/C=C/c3cc4c5c(c3)CCCN5CCC4)[o+]c(-c3ccc(C)c(C)c3)c2)cc1C [drawing 122, (E)-2,4-bis(3.4-dimethyiphenyl)-6-(2-(1,2,3,5,6,7-hexahydropyrido [3,2,1-ij]quinolin-9-yl)vinyl)pyrylium boron tetrafluoride salt] | 0.5 |  |
| CCc1ccc(-c2cc(/C=C/c3c[nH]c4ccccc34)[o+]c(-c3ccc(CC)cc3)c2)cc1 [(E)-2-(2-(1H-indol-3-yl)vinyl)-4,6-bis(4-ethylphenyl) pyrylium boron tetrafluoride salt] | 4 |  |
| CN(C)c1ccc(/C=C/c2cc(-c3ccc(I)cc3)cc(-c3ccc(F)cc3)[n+]2C)cc1.[I-] [Compound 3jc07-9, (E)-2-(4-(dimethylamino)styryl)-6-(4-fluorophenyl)-4-(4-iodophenyl)-1-methylpyridin-1-ium iodide salt] |  | MIC SA USA300: 4 µg/mL |
| Cn1cc(/C=C/c2cc(-c3ccc(C(C)(C)C)cc3)cc(-c3ccc(C(C)(C)C)cc3)[o+]2)c2ccccc21 [(E)-2,4-bis(4-(tert-butyl)phenyl)-6-(2-(1-methyl-1H-indol-3-yl)vinyl)pyrylium boron tetrafluoride salt] | 16 |  |
| CCc1ccc(-c2cc(/C=C/C=C/c3ccc(N(C)C)cc3)[o+]c(-c3ccc(CC)cc3)c2)cc1 [2-((1E,3E)-4-(4-(dimethylamino)phenyl)buta-1,3-dien-1-yl)-4,6-bis(4-ethylphenyl) pyrylium boron tetrafluoride salt] | 8 |  |
| Brc1ccc(-c2cc(/C=C/c3cc4c5c(c3)CCCN5CCC4)[o+]c(-c3ccc(Br)cc3)c2)cc1 [(E)-2,4-bis(4~ bromophenyl)-6-(2-(1,2,3,5,6,7-hexahydropyrido [3,2,1-ij]quinolin-9-yl)vinyl)pyrylium boron tetrafluoride salt] | 4 |  |
| CN(C)c1ccc(/C=C/c2cc(-c3ccc(Br)cc3)cc(-c3ccc(Br)cc3)[o+]2)cc1 [drawing 88, (E)-2,4-bis(4-bromophenyl)-6-(4-(dimethylamino)styryl)pyrylium boron tetrafluoride salt] | 32 |  |
| Clc1ccc(-c2cc(/C=C/c3cc4c5c(c3)CCCN5CCC4)[o+]c(-c3ccc(Cl)cc3)c2)cc1 [(E)-2,4-bis(4-chlorophenyl)-6-(2-(1,2,3,5,6,7-hexahydropyrido [3,2,1-ij]quinolin-9-yl)vinyl)pyrylium boron tetrafluoride salt] | 1 |  |
| CC(C)(C)c1ccc(-c2cc(/C=C/c3cc4c5c(c3)CCCN5CCC4)[o+]c(-c3ccc(C(C)(C)C)cc3)c2)cc1 [(E)-2,4-bis(4-(tert-butyl)phenyl)-6-(2-(1,2,3,5,6,7-hexahydropyrido [3,2,1-ij]quinolin-9-yl)vinyl)pyrylium boron tetrafluoride salt] | 32 |  |
| Cc1cc(C)[o+]c(C)c1 [2,4,6-trimethylpyrylium boron tetrafluoride salt] | >64 |  |
| Cc1ccc(-c2cc(C)[o+]c(-c3ccc(C)cc3)c2)cc1 [2-methyl-4,6-di-p-tolylpyrylium boron tetrafluoride salt] | >64 |  |
| C(=C\c1cc(-c2ccccc2)cc(-c2ccccc2)[o+]1)/c1cc2c3c(c1)CCCN3CCC2 [(E)-2-(2-(1,2,3,5,6,7-hexahydropyrido [3,2,1-ij]quinolin-9-yl)vinyl)-4,6-diphenylpyrylium boron tetrafluoride salt] | 1 |  |
| CCc1ccc(-c2cc(C)[o+]c(-c3ccc(CC)cc3)c2)cc1 [2,4-bis(4-ethylphenyl)-6-methylpyrylium boron tetrafluoride salt] | >64 |  |
